Key:
[1] = system: Swiss mice; assay: Fat tolerance test (ftt) in mice; assay type: in vivo; conditions: 3 mg/kg, p.o.; olive oil load 10 mL/kg 30 min after treatment; AUC0-4h, vehicle group as 100%
Protocol: Swiss mice of age 4-5 weeks and body weight between 25-30 g were selected for study. After fasting for about 16 h, the animals were divided into three groups based on plasma triglyceride level with same mean and variation. Animals were administered with either vehicle [(1% tween 80 in 0.5% carboxy methylcellulose (CMC)]) or with compounds of the present invention (3 mg/kg, p.o.). Compounds of the present invention were prepared as suspension in 0.5% carboxy methylcellulose (CMC) with 1% tween 80. Olive oil (fat) load (10 mL/kg, p.o.) was given, 30 min after the treatment. Blood samples were collected at 1, 2, 3 and 4 h after the fat (olive oil) load. Plasma was separated and triglyceride level was measured using commercially available kits (diasys, Germany). Percentage reduction in area under curve (AUC0-4h) of the test compound was calculated by taking AUC0-4h of the vehicle group as 100%.

[2] = target: T1, hDGAT1 (Homo sapiens, UniProt O75907); assay: In-vitro DGAT1 assay (14C oleoyl CoA, hDGAT1 microsomes from Sf9 cells); conditions: for inhibition at 1 µM: read-out: % Inhibition of hDGAT1
T1 sequence (O75907 1-488): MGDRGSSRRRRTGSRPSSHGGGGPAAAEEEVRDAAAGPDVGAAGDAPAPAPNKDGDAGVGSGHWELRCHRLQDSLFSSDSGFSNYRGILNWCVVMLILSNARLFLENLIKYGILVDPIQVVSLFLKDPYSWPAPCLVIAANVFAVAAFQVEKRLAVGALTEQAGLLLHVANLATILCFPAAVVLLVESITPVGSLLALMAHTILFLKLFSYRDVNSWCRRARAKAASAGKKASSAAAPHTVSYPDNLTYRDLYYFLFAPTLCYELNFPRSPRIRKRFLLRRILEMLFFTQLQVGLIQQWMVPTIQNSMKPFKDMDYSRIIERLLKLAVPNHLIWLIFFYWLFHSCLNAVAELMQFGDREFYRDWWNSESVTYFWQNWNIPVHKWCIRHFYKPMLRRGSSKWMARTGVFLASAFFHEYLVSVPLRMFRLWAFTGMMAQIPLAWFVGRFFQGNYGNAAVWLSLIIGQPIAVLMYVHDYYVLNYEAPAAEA

Structure (SMILES) | % Reduction (Plasma triglyceride) [1] | inhibition at 1 µM [2] | % Inhibition of hDGAT1 ([2]; at 1 μM)
CC(C)[C@@H](C(=O)O)N1Cc2ccc(-c3ccc(NC(=O)c4ccc5ccccc5c4)cn3)cc2C1=O [Example 410, (S)-2-(6-(5-(2-Naphthamido)pyridin-2-yl)-1-oxoisoindolin-2-yl)-3-methylbutanoic acid] | ++ (>50% Reduction) | > 50% | 
CCCc1ccc(C(=O)Nc2ccc(-c3ccc4c(c3)C(=O)N([C@H](C(=O)O)C(C)C)C4)cc2)cc1 [Example 170, (S)-3-Methyl-2-(1-oxo-6-(4-(4-propylbenzamido)phenyl)isoindolin-2-yl)butanoic acid] | ++ (>50% Reduction) | > 50% | 
CCCCCc1ccc(C(=O)Nc2ccc(-c3ccc4c(c3)C(=O)N([C@H](C(=O)O)C(C)C)C4)nc2)cc1 [Example 406, (S)-3-Methyl-2-(1-oxo-6-(5-(4-pentylbenzamido)pyridin-2-yl)isoindolin-2-yl)butanoic acid] | ++ (>50% Reduction) | > 50% | 
CC(C)[C@@H](C(=O)O)N1Cc2ccc(-c3ccc(NC(=O)c4ccc(-c5ccccc5)cc4)cc3)cc2C1=O [Example 120, (S)-2-(6-(4-Biphenyl-4-ylcarboxamidophenyl)-1-oxoisoindolin-2-yl)-3-methyl butanoic acid] | ++ (>50% Reduction) |  | ++ (>50% Inhibition)
CCCCCc1ccc(C(=O)Nc2ccc(-c3ccc4c(c3)C(=O)N([C@H](C(=O)O)C(C)C)C4)cc2)cc1 [Example 124, (S)-3-Methyl-2-(1-oxo-6-(4-(4-pentylbenzamido)phenyl)isoindolin-2-yl)butanoic acid] | ++ (>50% Reduction) | > 50% | 
CC(C)[C@@H](C(=O)O)N1Cc2ccc(-c3ccc(NC(=O)c4cccc(Oc5ccccc5)c4)cc3)cc2C1=O [Example 148, (S)-3-Methyl-2-(1-oxo-6-(4-(3-phenoxybenzamido)phenyl)isoindolin-2-yl)butanoic acid] | ++ (>50% Reduction) | > 50% | 
